The term Kd denotes the equilibrium constant for the complex coming apart.

Where no end group is shown, it is not given here.

The source of these data is US10053725B2, “In situ interaction determination” (President and Fellows of Harvard College, priority 2013, dated 2018).

In experiment [1] the target is T1, streptavidin (SA) (Streptomyces avidinii, UniProt P22629). Nature of the experiment: Antibody-mediated ISID with DNA-αSA and streptavidin (qPCR, mock-library enrichment). In kind it is binding. The method, then: (§1) In cases where recombinant SA or CAII was added to HeLa lysate at 0.01% wt, the protein content of the HeLa cell lysate was first estimated using the Modified Lowry Assay Kit (Thermo Scientific). HeLa cell lysate replaced water in the primer extension reaction mixture, and was added in volumes of 5.7-8.5 μL, with a maximum weight of 60 μg total protein added.
T1 sequence (P22629 25-183, species assumed): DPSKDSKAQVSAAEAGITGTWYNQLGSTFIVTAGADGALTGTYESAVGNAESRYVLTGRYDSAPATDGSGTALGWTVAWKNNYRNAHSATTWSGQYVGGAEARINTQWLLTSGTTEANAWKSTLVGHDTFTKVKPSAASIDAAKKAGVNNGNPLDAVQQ
(Real-time PCR tracks product formation cycle by cycle.)

For the next experiment, the target named is T2, His6-Bcl-xL (Homo sapiens, UniProt Q07817).
T2 construct: His6-Bcl-xL (truncated C-terminus, amino acids 1 to 212); expressed in transfected cells; host or cells: HEK-293T (lysate)
T2 sequence (Q07817 3-212): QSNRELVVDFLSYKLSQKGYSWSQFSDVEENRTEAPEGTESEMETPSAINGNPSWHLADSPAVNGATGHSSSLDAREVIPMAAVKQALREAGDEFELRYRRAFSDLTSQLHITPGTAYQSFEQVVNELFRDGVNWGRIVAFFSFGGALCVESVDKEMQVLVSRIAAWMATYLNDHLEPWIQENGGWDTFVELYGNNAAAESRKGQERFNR
Nature of the experiment: ISID with DNA-αHis and His6-tagged Bcl-xL. Format: binding.

The next experiment has as its target T3, CAII-His6 (Homo sapiens, UniProt P00918).
T3 construct: expressed in transfected cells; host or cells: HEK-293T (lysate)
Nature of the experiment: ISID with DNA-αHis and His6-tagged CAII. Format: binding.

Experiment [2] has as its target T4, carbonic anhydrase II (CAII) (Homo sapiens, UniProt P00918, S2A).
T4 construct: made in house; host or cells: E. coli BL21(DE3), pACA plasmid
Nature of the experiment: Antibody-mediated ISID with DNA-αCAII and CAII in HeLa lysate. Format: binding. The conditions noted are these: T4 DNA polymerase; mock library DNA-GLCBS/DNA-desthiobiotin; 0.01% CAII in HeLa lysate. The procedure: as §1

The next experiment has as its target T5, SNAP-CA (Homo sapiens, UniProt P00918).
T5 construct: expressed in transfected cells; host or cells: HEK-293T (lysate)
Nature of the experiment: Model library×library ISID with SNAP-tagged targets: CAII. In kind it is binding. The note with it: 262 DNA-linked ligands × 259 DNA-linked targets; counts DNA-BG sample / DNA alone sample.

A further experiment concerns the target T6, SNAP-CAII or CAII-SNAP (Homo sapiens, UniProt P00918, S2A).
T6 construct: expressed in transfected cells; host or cells: HEK-293T (lysate)
Nature of the experiment: ISID in 293T cell lysate expressing SNAP-tagged CAII. Format: binding. The note with it: 293T lysate expressing SNAP-CAII or CAII-SNAP; mixtures with DNA-desthiobiotin.

Experiment [3] has as its target carbonic anhydrase II (CAII) (Homo sapiens, UniProt P00918). The conditions noted are these: read-out: CAII:GLCBS Kd; cited from earlier work.
In experiment [4] the target is T7, SNAP-Bcl-xL or Bcl-xL-SNAP (Homo sapiens, UniProt Q07817).
T7 construct: His6-Bcl-xL (truncated C-terminus, amino acids 1 to 212); expressed in transfected cells; host or cells: HEK-293T (lysate)
T7 sequence (Q07817 1-212): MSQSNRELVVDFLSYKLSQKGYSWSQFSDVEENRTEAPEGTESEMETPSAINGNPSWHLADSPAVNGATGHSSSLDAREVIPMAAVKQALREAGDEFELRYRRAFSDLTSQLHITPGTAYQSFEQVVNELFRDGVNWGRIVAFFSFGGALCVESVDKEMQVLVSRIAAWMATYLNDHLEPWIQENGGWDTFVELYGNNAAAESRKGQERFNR
Nature of the experiment: ISID in 293T cell lysate expressing SNAP-tagged Bcl-xL. In kind it is binding. The note with it: mixtures of DNA-Bak/DNA-BakL78A/DNA-biotin.

A further experiment has as its target Bcl-xL (Homo sapiens, UniProt Q07817). The conditions noted are these: cited from earlier work.
Experiment [5] deals with T1, streptavidin (SA). The note with it: read-out: SA-iminobiotin Kd; cited from earlier work.
A further experiment has as its target T8, SNAP-Bcl-xL (UniProt Q07817-1 1-212, SNAP-tag covalently labelled with O6-benzylguanine-linked DNA (DNA-BG)).
T8 construct: also called N-terminally SNAP-tagged Bcl-xL; not shown: SNAP-tag from the pSNAPf vector (New England Biolabs)
Nature of the experiment: model library x library ISID, pooled 293T lysates expressing SNAP-target fusions; sequence counts with DNA-BG divided by counts with DNA alone.

Experiment [6] concerns the target T9, His6-Bcl-xL (truncated C-terminus, amino acids 1 to 212) (UniProt Q07817 1-212).
T9 construct: range 1-212
The experiment in a line: ISID with DNA-αHis in lysate of 293T cells expressing His6-Bcl-xL, mock library, restriction digest and PAGE.

The mark [7] stands for this setting: T4 DNA polymerase, 8-nt complementary region, mock library with DNA-GLCBS, SA 0.01% wt in HeLa lysate.

T8 sequence (Q07817 1-212): as above
Chain of Bcl-xL (Q07817 whole entry, species assumed): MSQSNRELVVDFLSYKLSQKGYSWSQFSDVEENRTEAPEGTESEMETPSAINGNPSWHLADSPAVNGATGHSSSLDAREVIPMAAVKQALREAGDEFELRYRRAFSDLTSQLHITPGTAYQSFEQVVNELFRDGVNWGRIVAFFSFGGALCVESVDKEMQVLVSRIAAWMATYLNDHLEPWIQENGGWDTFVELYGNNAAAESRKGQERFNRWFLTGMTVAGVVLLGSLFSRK
T9 sequence (Q07817 other isoform, or with tags, fused parts or gaps): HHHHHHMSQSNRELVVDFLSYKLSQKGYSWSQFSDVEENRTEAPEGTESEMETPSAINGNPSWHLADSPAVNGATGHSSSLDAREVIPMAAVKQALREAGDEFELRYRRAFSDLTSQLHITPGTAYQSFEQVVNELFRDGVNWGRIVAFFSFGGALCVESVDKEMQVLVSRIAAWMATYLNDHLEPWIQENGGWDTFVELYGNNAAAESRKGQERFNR

In the case of `C[C@@H]1NC(=O)N[C@@H]1CCCCCC(=O)O` [desthiobiotin], the ΔCT at streptavidin (SA) [1] (DNA-αSA, 0.01% SA in HeLa lysate, qPCR) amounted to 4.7. Further, the enrichment of sequence on streptavidin (SA) [1] (setting [7]) was approximately 1000 fold.
“DNA-Bad: DNA oligonucleotide linked to Bad BH3 peptide”: the ΔCT was determined as 8 with His6-Bcl-xL (293T cell lysate expressing His6-BclxL, vs DNA-GLCBS or DNA-biotin) and 3 cycles with His6-Bcl-xL (recombinant His6-Bcl-xL).
In the case of `O=C(O)CCCC[C@@H]1SC[C@@H]2NC(=O)N[C@@H]21` [biotin], the enrichment of sequence on streptavidin (SA) [1] (Klenow exo−, mixtures DNA-biotin/DNA-GLCBS, SA 0.01% wt in HeLa cell lysate) is approximately 10 fold; at streptavidin (SA) [1] (setting [7]), ~1,000 fold. The same molecule displayed an improvement in enrichment at streptavidin (SA) [1] (T4 DNA polymerase/8-nt vs Klenow exo−/6-nt complementary region) of 100 fold.
Turning to Gly-Leu-CBS [GLCBS], the enrichment of sequence is approximately 10 fold on CAII-His6 (293T cell lysate expressing CAII-His6, undiluted, mock library); approximately 100 fold on CAII-His6 (transfected lysate diluted 1:10 into untransfected 293T lysate); approximately 10 fold at CAII-His6 (transfected lysate diluted 1:100 into untransfected lysate, approximating 3 nM CAII-His6); 10 fold in experiment [2]; approximately 100 fold at SNAP-CAII or CAII-SNAP. On SNAP-CA, this molecule gave an enrichment factor of 178.3. The Kd in [3] is 0.04 µM.
In the case of “BakL78A: BakL78A (72-87) peptide, a weakly binding mutant of the Bak peptide (GQVGRQAAIIGDDINR; not fully specified)”, the enrichment of sequence result in experiment [4] is recorded as “no enrichment”. Further, the dissociation constant (Kd) with Bcl-xL is 270 µM.
As to `N=C1N[C@H]2[C@H](CS[C@H]2CCCCC(=O)O)N1` [iminobiotin], the Kd on streptavidin (SA) [5] was 13 µM.

B1: BakL78A (72-87) peptide (peptide, UniProt Q16611 72-87, looked up)
peptide: GQVGRQAAIIGDDINR
modifications: also: conjugated to 3'-thiol-modified DNA via SM(PEG)2 crosslinker, site not given here
notes: range 72-87; also called DNA-BakL78A; 3i-BakL78A
For the molecule B1, the enrichment factor in the experiment with SNAP-Bcl-xL was determined as 3.9.

B2: Bad BH3 peptide (103-127) (peptide, UniProt Q92934 103-127, looked up)
peptide: NLWAAQRYGRELRRMSDEFVDSFKK
modifications: also: conjugated to 3'-thiol DNA via SM(PEG)2 crosslinker, attachment site not given here
notes: range 103-127; Used as a peptide-DNA conjugate in ISID; also called DNA-Bad; 3h-Bad
For the molecule B2, in [6], the enrichment was approximately 100 fold. The enrichment factor with SNAP-Bcl-xL turned out to be 238.
